Here are results for five compounds from patent publication US20080300298A1, “Honokiol Derivates For the Treatment of Proliferative Disorders” (priority 2005, published 2008).

Data set [1] concerns SVR (a transformed endothelial cell line). Kind of data set: SVR cellular proliferation assay. The format is cell-based. The conditions noted are these: Mus musculus, SVR cells; for inhibition at 10 µg/mL: 10 μg/mL; for inhibition at 15 µg/mL: 15 μg/mL. How it is done:
The SVR (a transformed endothelial cell line) proliferation assay can be used as a direct measure of antiangiogenic and antitumor activity. This assay serves as a high throughput screen that compares the effects of a compound on proliferation of SVR cells versus an immortalized endothelial cell line, MS1. […] SVR cells were plated in 24-well dishes. The next day, the medium was replaced with fresh medium containing the inhibitors or vehicle controls. Cells were incubated at 37° C. for 72 h (Arbiser, J. L., et al. 1999 J. Am. Acad. Dermatol. 40, 925-929; LaMontagne, K. R., et al. 2000 Am. J. Pathol. 157, 1937-1945), and cell number was determined in triplicate using a Coulter Counter (Hialeah, Fla.). Immortalized and K-Ras transformed rat epithelial cells (RIEpZip and […]) and fibroblasts (NIH3T3 pZip and NIH3T3 pZipK-Ras12V) were maintained at 37° C., 10% CO2, in Dulbecco's modified Eagle's medium supplemented with 5% fetal calf serum (RIE) or 10% calf serum (NIH3T3) (Oldham, S. M., et al. 1996 Proc. Natl. Acad. Sci. U.S.A. 93, 6924-6928; Pruitt, K., et al. 2000 J. Biol. Chem. 275, 40916-40924). Cells were plated at 10^5/well in six-well plates.

Data set [2] in a line: toxicity in mice (Table 5). The conditions noted are these: mouse, in vivo. The text has this:
In vivo models of cancer growth include xenografts of human tumor cells injected into animals, such as mice, particularly immunocomprimised mice. Toxicity of the compounds can also be assessed in these assays through daily administration of the compounds to the animals combined with daily monitoring of the animals. The animals can also be monitored for two weeks to look for weight loss, as well as other common toxicities known to one skilled in the art, such as altered grooming, decreased movement of mice, and tremor. The compounds can also be tested for their ability to inhibit tumor growth in animals. SVR angiosarcoma tumor cells, for example, can be injected into animals, such as immunocompromised mice. Mice can be injected with approximately one million SVR cells subcutaneously, and when tumors become palpable, can be treated with a beginning dose (such as 120 mg/kg intraperitoneally) once daily. Drugs that are active at 120 mg/kg can then be retested at lower doses of 80 mg/kg, 40 mg/kg, etc. Tumor volume can be calculated using the formula (w2×L)0.52, where w (width) represents the smallest dimension of the tumor. Mice can be treated for a period of time such as approximately 30 days, or until tumor growth reaches 1 cm^3.

A further data set concerns HIV-1. Put plainly: HIV assay in PBM cells (RT activity). In kind it is cell-based. The conditions noted are these: HIV-1 in human PBM cells. How it is done:
The antiviral activity of the synthesized compounds and honokiol were evaluated against HIV-1 in human peripheral blood mononuclear (PBM) cells (Table 4).
Human peripheral blood mononuclear (PBM) cells (which can be obtained from Atlanta Red Cross) can be isolated by Ficoll-Hypaque discontinuous gradient centrifugation from healthy seronegative donors. Cells can be stimulated with phytohemagglutinin A (Difco, Sparks, Md.) for 2-3 days prior to use. HIV-1, such as HIV-1LAI can be obtained from the Centers for Disease Control and Prevention (Atlanta, Ga.), and can be used as the standard reference virus for the antiviral assays. The molecular infectious clones HIV-1xxBru and HIV-1M184Vpin can be obtained from Dr. John Mellors (University of Pittsburgh). Infections can be done in bulk for one hour, either with 100 TCID50/1×10^7 cells for a flask (T25) assay or with 200 TCID50/6×10^5 cells/well for a 24 well plate assay. Cells can be added to a plate or flask containing a ten-fold serial dilution of the test compound. Assay medium can be RPMI-1640 supplemented with heat inactivated 16% fetal bovine serum, 1.6 mM L-glutamine, 80 IU/ml penicillin, 80 μg/ml streptomycin, 0.0008% DEAE-Dextran, 0.045% sodium bicarbonate, and 26 IU/ml recombinant interleukin-2 (Chiron Corp, Emeryville, Calif.). AZT can be used as a positive control for the assay. Untreated and uninfected PBM cells can be grown in parallel at equivalent cell concentrations as controls. The cell cultures can be maintained in a humidified 5% CO2-air at 37° C. for 5 days and supernatants can be collected for reverse transcriptase (RT) activity.
Supernatants can be centrifuged at 12,000 rpm for 2 hours to pellet the virus. The pellet can be solubilized with vortexing in 100 μl virus solubilization buffer (VSB) containing 0.5% Triton X-100, 0.8 M NaCl, 0.5 mM phenylmethylsulfonyl fluoride, 20% glycerol, and 0.05 M Tris, pH 7.8. Ten μL of each sample can be added to 75 μL RT reaction mixture (0.06 M Tris, pH 7.8, 0.012 M MgCl2, 0.006 M dithiothreitol, 0.006 mg/ml poly (rA)n, oligo (dT)12-18, 96 μg/ml dATP, and 1 μM of 0.08 mCi/ml ^3H-thymidine triphosphate (Moravek Biochemicals, Brea, Calif.) and can be incubated at 37° C. for 2 hours. The reaction can be stopped by the addition of 100 μL 10% trichloroacetic acid containing 0.05% sodium pyrophosphate. The acid insoluble product can be harvested onto filter paper using a Packard Harvester (Meriden, Conn.), and the RT activity can be read on a Packard Direct Beta Counter (Meriden, Conn.). The RT results can be expressed in counts per minute (CPM) per milliliter. The antiviral 50% effective concentration (EC50) and 90% effective concentration (EC90) can be determined from the concentration-response curve using the median effect method (Belen'kii, S. M.; Schinazi, R. S. Multiple drug effect analysis with confidence interval. Antiviral. Res. 1994, 25, 1-11).

A further data set has as its system PBM cells. Put plainly: cytotoxicity assay (MTT). The format is cell-based, human. How it is done:
(§1) The cytotoxicity of the honokiol and analogues thereof were assessed in human PBM, CEM and Vero cells (Table 4). Compounds can be evaluated for their potential toxic effects on uninfected human PBM cells, in CEM (T-lymphoblastoid cell line obtained from American Type Culture Collection, Rockville, Md.) and Vero (African green monkey kidney) cells. PBM cells can be obtained from whole blood of healthy seronegative donors (HIV-1) by single-step Ficoll-Hypaque discontinous gradient centrifugation. […] All of the cells can be plated in 96-well cell culture plates containing ten-fold serial dilutions of the test drug. […] At the end of incubation, MTT tetrazolium dye solution (Cell titer 96®, Promega, Madison, Wis.) can be added to each well and incubated overnight. The reaction can be stopped with stop solubilization solution (Promega, Madison, Wis.). […] The plates can be read at a wavelength of 570 nm using an ELISA plate reader (Bio-tek instruments, Inc., Winooski, Vt., Model #EL 312e). The 50% inhibition concentration (IC50) can be determined from the concentration-response curve using the median effect method.

Data set [3] concerns CEM (T-lymphoblastoid cell line). Put plainly: cytotoxicity assay (MTT). The format is cell-based. How it is done: as §1

Where only a bound is given, the exact number is not on record here.

By inhibition is commonly meant how much of the control response was suppressed. Low values mean little suppression, high ones strong suppression. Turning to `C=CCC1=C(CC=C)C(=O)c2ccccc2C1=O`, in data set [1], 10 µg/mL produced 87.5% inhibition and the inhibition at 15 µg/mL came out at 91.5%. Moreover, the Toxicity entry in data set [2] is reported as “Toxic”.

As to `C=CCc1cc(Cc2ccc(O)c(CC=C)c2)ccc1O`, in data set [1], the inhibition at 10 µg/mL turned out to be 75.5% and the inhibition at 15 µg/mL was determined as 73.7%. Moreover, the Toxicity result in data set [2] is given as “Toxic”.

In data set [1], `C=CCc1cc(/C(CC)=C(\CC)c2ccc(O)c(CC=C)c2)ccc1O` returned an inhibition at 10 µg/mL of 68.4% and an inhibition at 15 µg/mL of 89.3%. In data set [2], the Toxicity result was “Toxic”.

As a reminder, the EC50 is the midpoint of the concentration-response curve. By EC90 is commonly meant the concentration needed for an effect of 90%. Turning to `Cc1cn([C@H]2C[C@H](N=[N+]=[N-])[C@@H](CO)O2)c(=O)[nH]c1=O` [AZT, reference compound], the EC50 is 14 nM in the data set on HIV-1 (read-out: Activity anti-VIH-1 on PBM cells EC50), > 100000 nM in the data set with PBM cells and 14300 nM in data set [3]. Moreover, the EC90 with HIV-1 (read-out: Activity anti-VIH-1 on PBM cells EC90) was 49 nM.

`C=CCc1cc(-c2ccc(O)c(CC=C)c2)ccc1O` [drawing 56]: in data set [1], the inhibition at 10 µg/mL came out at 44.9% and the inhibition at 15 µg/mL worked out at 56.2%. The Toxicity result in data set [2] is recorded as “Toxic”.
